By IC50 is commonly meant the concentration that inhibits the measured activity by half. A word on the CC50: it is the concentration that lowers cell viability or growth by half.

In one data set the test system is M. tuberculosis H37Rv. Description: In vitro efficacy test using the H37Rv strain, Microplate Alamar Blue Assay (MABA) MIC. The following applies: for MIC: Mycobacterium tuberculosis, H37RV. Type of data set: cell-based, Mycobacterium tuberculosis.
The test system of the next data set is M. tuberculosis H37R. The data set is described as follows: microbe, parasite or virus in culture. Type of data set: cell-based, Mycobacterium tuberculosis. Particulars: Mycobacterium tuberculosis, H37R; read-out: M. tuberculosis H37R LORA (MIC).
Another data set has as its system Vero Cell. The data set is described as follows: Vero cell cytotoxicity (IC50). Format: cell-based. The following applies: Chlorocebus sabaeus, Vero, African green monkey kidney cells.
A short description of data set [1]: Hela cell cytotoxicity (CC50). Particulars: human, HeLa cells (human cervical cancer cells), CC50_Hela, half of the toxic concentration.
Data set [2] deals with Mycobacterium smegmatis strain ATCC19420. Description: In vitro efficacy test using Mycobacterium smegmatis strain ATCC19420 (MIC). Type of data set: cell-based. The following applies: Mycolicibacterium smegmatis, ATCC19420, 72 h, CA-MHB + 0.02% Tween 80, 30° C., read after 72 hours.
[3] abbreviates: aerobic, 7H9 medium, Alamar Blue, read-out: M. tuberculosis H37Rv MABA (MIC).
[4] abbreviates: wild-type H37Rv strain, two values per compound, read-out: MABA MIC vs. H37Rv.
[5] abbreviates: wild-type H37Rv strain, two values per compound.

≈ marks a conversion by molar mass, not a printed value. Where two headings read alike, the source gives them in different places. Some results are limits rather than exact numbers.

Take `COc1ncc(-c2ccccc2)cc1C(c1ccccc1)C(O)(CCN(C)C)c1ccccc1` (stereo not shown) [Compound 22, 4-(dimethylamino)-1-(2-methoxy-5-phenylpyridin-3-yl)-1,2-diphenylbutan-2-ol]: the figures for the MIC in the data set on M. tuberculosis H37Rv (setting [3]) and in the data set with M. tuberculosis H37R were 1.48 µg/mL and 1.15 µg/mL (≈ 2.54 µM), respectively. In the data set with Vero Cell, the IC50 was more than 50 µg/mL. Besides, the cytotoxic concentration (CC50) in data set [1] was determined as 12 µg/mL (≈ 26.4 µM).
For `COc1ncc(-c2ccccc2)cc1C(c1ccccc1)C(O)(CCN(C)C)c1cc(F)ccc1F` (stereo not shown) [Compound 39, 2-(2,5-difluorophenyl)-4-(dimethylamino)-1-(2-methoxy-5-phenylpyridin-3-yl)-1-phenylbutan-2-ol], the results for the MIC (in data set [2]; with M. tuberculosis H37Rv (setting [3]); in the data set on M. tuberculosis H37R) were 0.125 µg/mL, 0.68 µg/mL and 0.71 µg/mL (≈ 1.45 µM), respectively. Moreover, the IC50 in the data set on Vero Cell is more than 50 µg/mL.
The matching figures for `COc1ncc(-c2ccccc2)cc1C(c1cccc(Cl)c1)C(O)(CCN(C)C)c1ccccc1` (stereo not shown) [Compound 43, 1-(3-chlorophenyl)-4-(dimethylamino)-1-(2-methoxy-5-phenylpyridin-3-yl)-2-phenylbutan-2-ol]: 0.125 µg/mL, 1.18 µg/mL, 1.42 µg/mL (≈ 2.92 µM) and more than 50 µg/mL.
As for `COc1ncc(-c2ccccc2)cc1C(c1ccc(Cl)cc1)C(O)(CCN(C)C)c1ccccc1` (stereo not shown) [Compound 47, 1-(4-chlorophenyl)-4-(dimethylamino)-1-(2-methoxy-5-phenylpyridin-3-yl)-2-phenylbutan-2-ol], the figures for the MIC (in data set [2]; in the data set with M. tuberculosis H37Rv (setting [3]); in the data set with M. tuberculosis H37R) were 0.125 µg/mL, 1.25 µg/mL and 0.75 µg/mL (≈ 1.54 µM), respectively. This compound had a 50% inhibitory concentration (IC50) in the data set on Vero Cell of more than 50 µg/mL.
For `COc1ncc(-c2ccccc2)cc1C(c1ccccc1F)C(O)(CCN(C)C)c1ccccc1` (stereo not shown) [Compound 51, 4-(dimethylamino)-1-(2-fluorophenyl)-1-(2-methoxy-5-phenylpyridin-3-yl)-2-phenylbutan-2-ol] the same measures were not above 0.0625 µg/mL, 1.2 µg/mL, 1.77 µg/mL (≈ 3.76 µM) and more than 50 µg/mL.
On to `COc1ncc(-c2ccccc2)cc1C(c1cccc(F)c1)C(O)(CCN(C)C)c1ccccc1` (stereo not shown) [Compound 55, 4-(dimethylamino)-1-(3-fluorophenyl)-1-(2-methoxy-5-phenylpyridin-3-yl)-2-phenylbutan-2-ol], for which the MIC in data set [2] stood at 0.125 µg/mL; with M. tuberculosis H37Rv (setting [3]), 1.15 µg/mL; in the data set on M. tuberculosis H37R, 2.06 µg/mL (≈ 4.38 µM). For the same compound, the IC50 with Vero Cell was more than 50 µg/mL.
The matching figures for `COc1cccc(C(c2cc(-c3ccccc3)cnc2OC)C(O)(CCN(C)C)c2ccccc2)c1OC` (stereo not shown) [Compound 71, 1-(2,3-dimethoxyphenyl)-4-(dimethylamino)-1-(2-methoxy-5-phenylpyridin-3-yl)-2-phenylbutan-2-ol]: not above 0.0625 µg/mL, 1.4 µg/mL, 1.47 µg/mL (≈ 2.87 µM) and more than 50 µg/mL.
`COc1ncc(-c2ccccc2F)cc1C(c1ccccc1)C(O)(CCN(C)C)c1cccc2ccccc12` (stereo not shown) [Compound 83, 4-(dimethylamino)-1-(5-(2-fluorophenyl)-2-methoxypyridin-3-yl)-2-(naphthalen-1-yl)-1-phenylbutan-2-ol]: the MIC came out at 0.125 µg/mL in data set [2], 1.41 µg/mL with M. tuberculosis H37Rv (setting [3]) and 0.57 µg/mL (≈ 1.09 µM) with M. tuberculosis H37R. The IC50 in the data set on Vero Cell was more than 50 µg/mL.
The matching figures for `COc1ncc(-c2cccc(Cl)c2)cc1C(c1ccccc1)C(O)(CCN(C)C)c1cccc2ccccc12` (stereo not shown) [Compound 111]: 0.5 µg/mL, 2.73 µg/mL, 1.36 µg/mL (≈ 2.53 µM) and more than 50 µg/mL.
For `NNC(=O)c1ccncc1` [isoniazide, isoniazid, reference compound], the MIC with M. tuberculosis H37Rv (setting [4]) is 0.37 µM. In the data set with M. tuberculosis H37Rv (setting [5]), the “MABA MIC vs. H37Rv” value worked out at 0.53 µM.
`CO[C@H]1/C=C/O[C@@]2(C)Oc3c(C)c(O)c4c(O)c(c(/C=N/N5CCN(C)CC5)c(O)c4c3C2=O)NC(=O)/C(C)=C\C=C\[C@H](C)[C@H](O)[C@@H](C)[C@@H](O)[C@@H](C)[C@H](OC(C)=O)[C@@H]1C` [rifampin, reference compound]: in the data set with M. tuberculosis H37Rv (setting [4]), the MIC was 0.12 µM. For the same compound, the “MABA MIC vs. H37Rv” value in the data set with M. tuberculosis H37Rv (setting [5]) was 0.24 µM.

The values are drawn from US9878982B2, “Pyridine derivatives and anti-mycobacterial use thereof” (priority 2014, dated 2018).
